According to patent US20100143475A1, “TRANSDERMAL THERAPEUTIC SYSTEM WITH TWO-PHASE RELEASE PROFILE” (priority 2006, published 2010):
Where two headings read alike, the source gives them in different places.

Columns and labels:
[1] = Double blind comparison of oral lisuride and placebo in 20 patients with Parkinson's disease; settings: up to maximum tolerance dose of 5 mg daily, immediate-release tablet, eight of 20 patients
Source text: The dosage of other active substances was kept unchanged during the trial.

[2] = 20 cm^2 TTS, plasma
Source text: The application site was the upper arm and changed from one arm to the other between two successive periods.

[3] = difference to placebo
[4] = double blind, oral, PDR 58, 2004, cited from earlier work
[5] = cited from earlier work
[6] = Oral ropinirole trial, comparison of central side effects (Table 5); type: in vivo, human; settings: difference to placebo, up to 24 mg (8 mg TID), 6 months
[7] = oral, cited from earlier work
[8] = difference to placebo (footnote: less than placebo), transdermal, 2 (20 cm^2) QOD, 14 weeks
[9] = difference to placebo, transdermal, 2 (20 cm^2) QOD, 14 weeks
[10] = transdermal, 2 (20 cm^2) QOD, 14 weeks, 335 Parkinsonism patients
[11] = oral, 4.5 mg or max. tol. dose, 7 weeks dose esc. +4 weeks
[12] = oral, 4.5 mg or max. tol. dose daily, 7 weeks dose esc. +4 weeks
[13] = up to 24 mg (8 mg TID) daily, 6 months

For `CCN(CC)C(=O)N[C@H]1C=C2c3cccc4[nH]cc(c34)CC2N(C)C1` (some centres unmarked) [Lisuride, lisuride], the “Gastrointestinal symptoms, in particular nausea (patients)” value [1] was 40%, the “Transition level” value ([2]; First application) was 32 pg/mL and the Peak level ([2]; Fourth application) was 140 pg/mL. The “Transition level” value ([2]; Fourth application) was 32 pg/mL, the Peak level ([2]; Second application) was 125 pg/mL and the “Transition level” value ([2]; Second application) was 23 pg/mL. For the same compound, the Peak level ([2]; Third application) was 130 pg/mL, the “Transition level” value ([2]; Third application) was 31 pg/mL and the “Other psych.*” value (amnesia, fear, abnormal dreams, nervousness, delusions, paranoid reactions, sleeplessness, transdermal, 2 (20 cm^2) QOD, 14 weeks) was 8. For the same compound, the “Skin reactions resulting in discontinuation Δ” value (difference to placebo) was 11.3, the “Dizziness Δ” value [8] was 0^♡ and the “Other psych.* Δ” value [8] was 0^♡. The “Confusion Δ” value [9] was 1.2, the “Drownsiness Δ” value [9] was 1.8 and the “Dyskinesias Δ” value [9] was 4.1. For the same compound, the “Fatigue Δ” value [9] was 1, the “Hallucinations Δ” value [9] was 3.6 and the “Hypotension Δ” value [9] was 1.2. The “Nausea Δ” value [9] was 0.6, the “Syncope Δ” value [9] was 0 and the “Vomiting Δ” value [9] was 0.6. For the same compound, the “Skin reactions resulting in discontinuation” value (lisuride group, transdermal, 14 weeks) was 12.5%, the Confusion [10] was 1.2 and the Dizziness [10] was 0.6. The Drownsiness [10] was 3.6, the Dyskinesias [10] was 7.1 and the Fatigue [10] was 1. The Hallucinations [10] was 5.4, the Hypotension [10] was 2.4 and the Syncope [10] was 0. It also gave a Vomiting [10] of 1.2.

With `CCCN[C@H]1CCc2nc(N)sc2C1` [Pramipexol] the “Hallucinations Δ” value ([3]; 8 month trial) was 13, the “Confusion Δ” value [3, 11] was 3 and the “Dizziness Δ” value [3, 11] was 0.2. For the same compound, the “Drownsiness Δ” value [3, 11] was 2, the “Dyskinesias Δ” value [3, 11] was 10.2 and the “Fatigue Δ” value [3, 11] was 24.9. The “Hypotension Δ” value [3, 11] was 6.5, the “Nausea Δ” value [3, 11] was 2 and the “Other psych.* Δ” value [3, 11] was 12.4. For the same compound, the “GI side effects: Nausea/vomiting (%)” value ([4]; dose range 0.375-4.5 mg, n = 388) was 12.4%, the “patients who reported hallucinations” value ([5]; 8 month trial) was 17% and the “Other psych.*” value ([5]; amnesia, fear, abnormal dreams, nervousness, delusions, paranoid reactions, sleeplessness, oral, 4.5 mg or max. tol. dose, 7 weeks dose esc. +4 weeks) was 28.3. The Confusion [5, 12] was 10, the Dizziness [5, 12] was 2.9 and the Drownsiness [5, 12] was 9. The Dyskinesias [5, 12] was 14.7, the Fatigue [5, 12] was 29.4 and the Hypotension [5, 12] was 8.8. The Nausea [5, 12] was 8.8.

In the case of `CC(C)C[C@H]1C(=O)N2CCC[C@H]2[C@]2(O)O[C@](NC(=O)[C@@H]3C=C4c5cccc6[nH]c(Br)c(c56)C[C@H]4N(C)C3)(C(C)C)C(=O)N12` [Bromocriptine], the “GI side effects: Nausea/vomiting (%)” value ([4]; dose range 5.0-30.0 mg, n = 231) is given as 43%.

For `C=CCN1C[C@H](C(=O)N(CCCN(C)C)C(=O)NCC)C[C@@H]2c3cccc4[nH]cc(c34)C[C@H]21` [Cabergoline], the “GI side effects: Nausea/vomiting (%)” value ([4]; dose range 0.25-1.0 mg, n = 221) is listed as 29.0%.

With `CCCN(CCC)CCc1cccc2c1CC(=O)N2` [Ropinirol] the “Confusion Δ” value [6] was 7, the “Dizziness Δ” value [6] was 10 and the “Drownsiness Δ” value [6] was 12. For the same compound, the “Dyskinesias Δ” value [6] was 21, the “Hallucinations Δ” value [6] was 6 and the “Hypotension Δ” value [6] was 1. For the same compound, the “Nausea Δ” value [6] was 12, the “Other psych.* Δ” value [6] was 10 and the “Syncope Δ” value [6] was 1. For the same compound, the “Vomiting Δ” value [6] was 3, the “GI side effects: Nausea/vomiting (%)” value ([4]; dose range 0.5-5.0 mg, n = 157) was 45.8% and the “Other psych.*” value ([7]; amnesia, fear, abnormal dreams, nervousness, delusions, paranoid reactions, sleeplessness, up to 24 mg (8 mg TID), 6 months) was 19. The Confusion [7, 13] was 9, the Dizziness [7, 13] was 26 and the Drownsiness [7, 13] was 20. The Dyskinesias [7, 13] was 34, the Hallucinations [7, 13] was 10 and the Hypotension [7, 13] was 2. The Nausea [7, 13] was 30, the Syncope [7, 13] was 3 and the Vomiting [7, 13] was 7. The Fatigue ([7]; data from restless legs study) was 8^♦.
